From PubChem BioAssay AID1259407 (Chemical Carcinogenesis Research Information System (CCRIS), 2018)
The source made the active and inactive calls. No rule for the calls is given here.

Tested on: CCRIS mutagenicity, Ames/micronucleus/aberration tests
Assay: CCRIS mutagenicity studies
[1] = Test System: AMES SALMONELLA TYPHIMURIUM, Strain/Indicator: TA98, Metabolic Activation: NONE, Method: STANDARD PLATE
[2] = Test System: AMES SALMONELLA TYPHIMURIUM, Strain/Indicator: TA100, Metabolic Activation: NONE, Method: STANDARD PLATE
[3] = Test System: AMES SALMONELLA TYPHIMURIUM, Strain/Indicator: TA98, Metabolic Activation: RAT, LIVER, S-9, AROCLOR 1254, Method: STANDARD PLATE
[4] = Test System: AMES SALMONELLA TYPHIMURIUM, Strain/Indicator: TA100, Metabolic Activation: RAT, LIVER, S-9, AROCLOR 1254, Method: STANDARD PLATE
[5] = Test System: AMES SALMONELLA TYPHIMURIUM, Strain/Indicator: TA97, Metabolic Activation: NONE, Method: STANDARD PLATE
[6] = Test System: AMES SALMONELLA TYPHIMURIUM, Strain/Indicator: TA1535, Metabolic Activation: NONE, Method: STANDARD PLATE
[7] = Test System: AMES SALMONELLA TYPHIMURIUM, Strain/Indicator: TA1537, Metabolic Activation: NONE, Method: STANDARD PLATE
[8] = Test System: AMES SALMONELLA TYPHIMURIUM, Strain/Indicator: TA1538, Metabolic Activation: NONE, Method: STANDARD PLATE

Measured: mutagenic call

Nc1c(Oc2ccccc2)cc(O)c2c1C(=O)c1ccccc1C2=O
active: Test System: AMES SALMONELLA TYPHIMURIUM, Strain/Indicator: TA98, Metabolic Activation: HAMSTER, LIVER, S-9, AROCLOR 1254 (10%), Method: STANDARD PLATE active; positive | [1] active; positive | Test System: AMES SALMONELLA TYPHIMURIUM, Strain/Indicator: TA98, Metabolic Activation: RAT, LIVER, S-9, AROCLOR 1254 (10%), Method: STANDARD PLATE active; positive
inactive: Test System: AMES SALMONELLA TYPHIMURIUM, Strain/Indicator: TA100, Metabolic Activation: HAMSTER, LIVER, S-9, AROCLOR 1254 (10%), Method: STANDARD PLATE inactive; negative | [2] inactive; negative | Test System: AMES SALMONELLA TYPHIMURIUM, Strain/Indicator: TA100, Metabolic Activation: RAT, LIVER, S-9, AROCLOR 1254 (10%), Method: STANDARD PLATE inactive; negative | Test System: MOUSE LYMPHOMA, Strain/Indicator: L5178Y (TK+/TK-), Metabolic Activation: RAT, LIVER, S-9, AROCLOR 1254, Method: SUSPENSION/PLATE inactive; negative. reevaluation of results: negative

O=Cc1cccc(-c2ccccc2)c1
inactive: [1] inactive; negative | [3] inactive; negative | [2] inactive; negative | [4] inactive; negative

CN[C@H]1CCc2cc(OC)c(OC)c(OC)c2-c2ccc(OC)c(=O)cc21
inactive: [1] inactive; negative | [2] inactive; negative | Test System: E. COLI, Strain/Indicator: WP2 (HCR), Metabolic Activation: NONE, Method: STANDARD PLATE inactive; negative

Clc1c2ccccc2cc2ccccc12
active: [3] active; positive | [4] active; positive

O=C/C(=C(\Cl)C(=O)O)C(Cl)Cl
active: [2] active; positive
inactive: [5] inactive; negative | Test System: AMES SALMONELLA TYPHIMURIUM, Strain/Indicator: TA97, Metabolic Activation: RAT, LIVER, S-9, PHENOBARBITAL, Method: STANDARD PLATE inactive; negative | [1] inactive; negative | Test System: AMES SALMONELLA TYPHIMURIUM, Strain/Indicator: TA98, Metabolic Activation: RAT, LIVER, S-9, PHENOBARBITAL, Method: STANDARD PLATE inactive; negative | Test System: AMES SALMONELLA TYPHIMURIUM, Strain/Indicator: TA100, Metabolic Activation: RAT, LIVER, S-9, PHENOBARBITAL, Method: STANDARD PLATE inactive; negative

CNC(=O)Oc1ccc2c(c1)[C@]1(C)CCN(C)[C@@H]1N2C
inactive: Test System: AMES SALMONELLA TYPHIMURIUM, Strain/Indicator: TA97, Metabolic Activation: LIVER, S-9 (10%), Method: STANDARD PLATE inactive; negative | [5] inactive; negative | Test System: AMES SALMONELLA TYPHIMURIUM, Strain/Indicator: TA97, Metabolic Activation: S-9, Method: STANDARD PLATE inactive; negative | Test System: AMES SALMONELLA TYPHIMURIUM, Strain/Indicator: TA98, Metabolic Activation: LIVER, S-9 (10%), Method: STANDARD PLATE inactive; negative | [1] inactive; negative | Test System: AMES SALMONELLA TYPHIMURIUM, Strain/Indicator: TA98, Metabolic Activation: S-9, Method: STANDARD PLATE inactive; negative | Test System: AMES SALMONELLA TYPHIMURIUM, Strain/Indicator: TA100, Metabolic Activation: LIVER, S-9 (10%), Method: STANDARD PLATE inactive; negative | [2] inactive; negative | Test System: AMES SALMONELLA TYPHIMURIUM, Strain/Indicator: TA100, Metabolic Activation: S-9, Method: STANDARD PLATE inactive; negative | Test System: AMES SALMONELLA TYPHIMURIUM, Strain/Indicator: TA102, Metabolic Activation: NONE, Method: STANDARD PLATE inactive; negative | Test System: AMES SALMONELLA TYPHIMURIUM, Strain/Indicator: TA102, Metabolic Activation: S-9, Method: STANDARD PLATE inactive; negative | Test System: AMES SALMONELLA TYPHIMURIUM, Strain/Indicator: TA104, Metabolic Activation: LIVER, S-9 (10%), Method: STANDARD PLATE inactive; negative | Test System: AMES SALMONELLA TYPHIMURIUM, Strain/Indicator: TA104, Metabolic Activation: NONE, Method: STANDARD PLATE inactive; negative | Test System: AMES SALMONELLA TYPHIMURIUM, Strain/Indicator: TA104, Metabolic Activation: S-9, Method: STANDARD PLATE inactive; negative | Test System: AMES SALMONELLA TYPHIMURIUM, Strain/Indicator: TA1535, Metabolic Activation: LIVER, S-9 (10%), Method: STANDARD PLATE inactive; negative | [6] inactive; negative | Test System: AMES SALMONELLA TYPHIMURIUM, Strain/Indicator: TA1535, Metabolic Activation: S-9, Method: STANDARD PLATE inactive; negative | Test System: AMES SALMONELLA TYPHIMURIUM, Strain/Indicator: TA1537, Metabolic Activation: LIVER, S-9 (10%), Method: STANDARD PLATE inactive; negative | [7] inactive; negative | Test System: AMES SALMONELLA TYPHIMURIUM, Strain/Indicator: TA1537, Metabolic Activation: S-9, Method: STANDARD PLATE inactive; negative | Test System: AMES SALMONELLA TYPHIMURIUM, Strain/Indicator: TA1538, Metabolic Activation: LIVER, S-9 (10%), Method: STANDARD PLATE inactive; negative | [8] inactive; negative | Test System: AMES SALMONELLA TYPHIMURIUM, Strain/Indicator: TA1538, Metabolic Activation: S-9, Method: STANDARD PLATE inactive; negative

CC(C)(C)NCC(O)c1cc(Cl)c(N)c(C(F)(F)F)c1 (configuration not stated)
inactive: [1] inactive; negative | Test System: AMES SALMONELLA TYPHIMURIUM, Strain/Indicator: TA98, Metabolic Activation: RAT, LIVER, S-9, PCB, Method: STANDARD PLATE inactive; negative | [2] inactive; negative | Test System: AMES SALMONELLA TYPHIMURIUM, Strain/Indicator: TA100, Metabolic Activation: RAT, LIVER, S-9, PCB, Method: STANDARD PLATE inactive; negative | [6] inactive; negative | Test System: AMES SALMONELLA TYPHIMURIUM, Strain/Indicator: TA1535, Metabolic Activation: RAT, LIVER, S-9, PCB, Method: STANDARD PLATE inactive; negative | [7] inactive; negative | Test System: AMES SALMONELLA TYPHIMURIUM, Strain/Indicator: TA1537, Metabolic Activation: RAT, LIVER, S-9, PCB, Method: STANDARD PLATE inactive; negative | [8] inactive; negative | Test System: AMES SALMONELLA TYPHIMURIUM, Strain/Indicator: TA1538, Metabolic Activation: RAT, LIVER, S-9, PCB, Method: STANDARD PLATE inactive; negative

Cc1cc2c(cc1N=O)OCO2
active: Test System: AMES SALMONELLA TYPHIMURIUM, Strain/Indicator: TA100, Metabolic Activation: NONE, Method: PREINCUBATION active; positive | Test System: AMES SALMONELLA TYPHIMURIUM, Strain/Indicator: TA100, Metabolic Activation: RAT, LIVER, S-9, PHENOBARBITAL AND 5,6-BENZOFLAVONE, Method: PREINCUBATION active; positive
